In patent publication EP1382597A2, “Steroid receptor modulator compounds and methods” (LIGAND PHARMACEUTICALS, INC., priority 1994, dated 1996):

Key:
AR [1] = biological target: T1, AR (Homo sapiens, UniProt P10275); assay: Co-transfection assay, AR antagonist activity; assay type: cell-based
T1 construct: expressed in transfected cells; host or cells: CV-1 cells, transient transfection

human PR-B [2] = biological target: T2, human PR-B (Homo sapiens, UniProt P06401); assay: Co-transfection assay, PR agonist activity; assay type: cell-based; conditions: for Emax: CV-1, read-out: PR Agonist CV-1 Cells Efficacy (%);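 on all read-outs here: CV-1 cells (African green monkey kidney) co-transfected with receptor plasmid and hormone-responsive firefly luciferase reporter, agonism read as compound-dependent rise in luciferase signal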
T2 construct: expressed in transfected cells; host or cells: CV-1 cells (African green monkey kidney fibroblasts), transient transfection
T2 sequence (P06401 1-933): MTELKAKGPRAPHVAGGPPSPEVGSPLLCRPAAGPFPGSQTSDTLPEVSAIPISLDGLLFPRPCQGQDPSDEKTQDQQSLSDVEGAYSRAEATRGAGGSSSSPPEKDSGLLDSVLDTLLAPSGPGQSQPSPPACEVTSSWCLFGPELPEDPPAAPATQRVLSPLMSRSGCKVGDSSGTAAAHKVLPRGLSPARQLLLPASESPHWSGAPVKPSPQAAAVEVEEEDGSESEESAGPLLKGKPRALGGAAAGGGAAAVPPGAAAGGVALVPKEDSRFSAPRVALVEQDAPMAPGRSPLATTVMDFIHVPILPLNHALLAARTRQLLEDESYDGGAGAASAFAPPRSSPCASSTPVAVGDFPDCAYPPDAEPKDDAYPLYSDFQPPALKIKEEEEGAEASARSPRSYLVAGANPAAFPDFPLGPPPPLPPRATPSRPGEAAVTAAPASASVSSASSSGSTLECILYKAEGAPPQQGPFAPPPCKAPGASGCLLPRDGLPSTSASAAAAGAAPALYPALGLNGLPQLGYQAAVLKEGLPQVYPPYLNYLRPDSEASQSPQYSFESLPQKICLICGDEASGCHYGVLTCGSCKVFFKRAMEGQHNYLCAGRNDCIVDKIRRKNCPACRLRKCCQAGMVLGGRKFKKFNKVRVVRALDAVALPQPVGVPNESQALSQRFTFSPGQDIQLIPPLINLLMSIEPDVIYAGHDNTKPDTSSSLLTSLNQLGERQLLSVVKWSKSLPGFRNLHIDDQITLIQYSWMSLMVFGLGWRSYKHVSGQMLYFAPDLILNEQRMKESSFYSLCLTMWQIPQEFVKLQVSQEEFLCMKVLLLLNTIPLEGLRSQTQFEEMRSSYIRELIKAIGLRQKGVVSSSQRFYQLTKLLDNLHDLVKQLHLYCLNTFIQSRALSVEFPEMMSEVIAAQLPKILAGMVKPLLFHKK

human PR-B [3] = biological target: T2, human PR-B; assay: Co-transfection assay, PR antagonist activity; assay type: cell-based; conditions: for Emax: CV-1, read-out: PR Antagonist CV-1 Cells Efficacy (%);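 on all read-outs here: monkey kidney fibroblasts co-transfected with receptor expression plasmid and hormone-responsive luciferase reporter, antagonism read as reduced luciferase signal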
ER = biological target: T3, ER (Homo sapiens, UniProt P03372); assay: Co-transfection assay, ER antagonist activity; assay type: cell-based; conditions: for ER Antagonist CV-1 Cells Efficacy (%): percent maximal inhibition, estradiol at its EC50
T3 construct: expressed in transfected cells; host or cells: CV-1 cells, transient transfection, with MTV-ERE5-LUC reporter
T3 sequence (P03372 whole entry): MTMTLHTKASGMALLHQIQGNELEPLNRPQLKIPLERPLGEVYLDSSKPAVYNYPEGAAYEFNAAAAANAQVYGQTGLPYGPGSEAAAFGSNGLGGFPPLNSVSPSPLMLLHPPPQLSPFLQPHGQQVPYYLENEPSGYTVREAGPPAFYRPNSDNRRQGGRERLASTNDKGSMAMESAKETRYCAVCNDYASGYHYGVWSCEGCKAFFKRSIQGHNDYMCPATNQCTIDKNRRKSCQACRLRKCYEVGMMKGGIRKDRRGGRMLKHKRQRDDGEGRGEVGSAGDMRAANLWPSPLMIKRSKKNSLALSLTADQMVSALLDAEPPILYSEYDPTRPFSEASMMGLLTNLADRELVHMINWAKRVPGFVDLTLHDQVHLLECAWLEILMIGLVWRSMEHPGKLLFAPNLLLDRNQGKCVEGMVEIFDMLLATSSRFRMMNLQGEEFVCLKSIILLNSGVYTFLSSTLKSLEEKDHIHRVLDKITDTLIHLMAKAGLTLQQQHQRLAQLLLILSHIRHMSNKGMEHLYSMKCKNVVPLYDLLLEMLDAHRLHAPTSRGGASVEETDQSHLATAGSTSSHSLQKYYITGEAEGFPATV

AR [4] = biological target: T4, AR (Rattus norvegicus, UniProt P15207); assay: Immature castrated male rat model (antiandrogen activity); assay type: in vivo, rats (Sprague-Dawley); conditions: for %SV growth / %VP growth: 0 mg TP = 100; for SV (wet wt): seminal vesicles
T4 construct: from tissue; host or cells: live Sprague-Dawley rats; ventral prostate and seminal vesicles weighed
T4 sequence (P15207 1-902): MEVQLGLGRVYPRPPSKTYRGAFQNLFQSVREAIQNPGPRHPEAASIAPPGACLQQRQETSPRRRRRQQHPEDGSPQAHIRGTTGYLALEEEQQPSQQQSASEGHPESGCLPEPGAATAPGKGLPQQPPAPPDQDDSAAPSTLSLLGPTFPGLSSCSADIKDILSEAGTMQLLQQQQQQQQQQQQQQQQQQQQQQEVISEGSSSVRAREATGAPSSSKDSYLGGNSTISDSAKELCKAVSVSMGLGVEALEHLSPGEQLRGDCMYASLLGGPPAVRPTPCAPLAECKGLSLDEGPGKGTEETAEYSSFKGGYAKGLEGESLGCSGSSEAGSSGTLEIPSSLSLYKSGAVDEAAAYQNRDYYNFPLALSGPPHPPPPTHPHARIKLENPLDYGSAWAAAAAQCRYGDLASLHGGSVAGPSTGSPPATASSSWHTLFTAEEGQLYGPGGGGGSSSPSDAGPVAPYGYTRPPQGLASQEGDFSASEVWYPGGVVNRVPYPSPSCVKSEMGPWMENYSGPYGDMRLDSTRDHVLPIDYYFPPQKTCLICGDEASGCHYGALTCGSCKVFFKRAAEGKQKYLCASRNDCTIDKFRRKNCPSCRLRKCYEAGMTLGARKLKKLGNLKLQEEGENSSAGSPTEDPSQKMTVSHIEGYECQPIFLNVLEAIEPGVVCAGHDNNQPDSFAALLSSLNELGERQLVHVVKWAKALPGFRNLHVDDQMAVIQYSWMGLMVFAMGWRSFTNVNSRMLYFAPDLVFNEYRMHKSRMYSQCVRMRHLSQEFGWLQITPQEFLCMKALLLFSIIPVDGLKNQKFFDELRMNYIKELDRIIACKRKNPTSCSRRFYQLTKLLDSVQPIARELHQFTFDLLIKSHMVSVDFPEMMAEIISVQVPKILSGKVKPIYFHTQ
Source text: Since the male sex organs are the tissues most responsive to modulation of androgen activity, this model is used to determine the androgen-dependent growth of the sex accessory organs in immature castrated rats.
At the end of the 3-day treatment, the animals were sacrificed, and the ventral prostates (VP) and seminal vesicles (SV) were collected and weighed. To compare data from different experiments, the sexual organ weights were first standardized as mg per 100 g of body weight, and the increase in organ weight induced by TP was considered as the maximum increase (100%). Super-anova (one factor) was used for statistical analysis.

[5] = 0.01 mg TP once daily for 3 days
[6] = 0.03 mg TP once daily for 3 days
[7] = 0.1 mg TP once daily for 3 days
[8] = 0.3 mg TP once daily for 3 days

T1 sequence (P10275 whole entry): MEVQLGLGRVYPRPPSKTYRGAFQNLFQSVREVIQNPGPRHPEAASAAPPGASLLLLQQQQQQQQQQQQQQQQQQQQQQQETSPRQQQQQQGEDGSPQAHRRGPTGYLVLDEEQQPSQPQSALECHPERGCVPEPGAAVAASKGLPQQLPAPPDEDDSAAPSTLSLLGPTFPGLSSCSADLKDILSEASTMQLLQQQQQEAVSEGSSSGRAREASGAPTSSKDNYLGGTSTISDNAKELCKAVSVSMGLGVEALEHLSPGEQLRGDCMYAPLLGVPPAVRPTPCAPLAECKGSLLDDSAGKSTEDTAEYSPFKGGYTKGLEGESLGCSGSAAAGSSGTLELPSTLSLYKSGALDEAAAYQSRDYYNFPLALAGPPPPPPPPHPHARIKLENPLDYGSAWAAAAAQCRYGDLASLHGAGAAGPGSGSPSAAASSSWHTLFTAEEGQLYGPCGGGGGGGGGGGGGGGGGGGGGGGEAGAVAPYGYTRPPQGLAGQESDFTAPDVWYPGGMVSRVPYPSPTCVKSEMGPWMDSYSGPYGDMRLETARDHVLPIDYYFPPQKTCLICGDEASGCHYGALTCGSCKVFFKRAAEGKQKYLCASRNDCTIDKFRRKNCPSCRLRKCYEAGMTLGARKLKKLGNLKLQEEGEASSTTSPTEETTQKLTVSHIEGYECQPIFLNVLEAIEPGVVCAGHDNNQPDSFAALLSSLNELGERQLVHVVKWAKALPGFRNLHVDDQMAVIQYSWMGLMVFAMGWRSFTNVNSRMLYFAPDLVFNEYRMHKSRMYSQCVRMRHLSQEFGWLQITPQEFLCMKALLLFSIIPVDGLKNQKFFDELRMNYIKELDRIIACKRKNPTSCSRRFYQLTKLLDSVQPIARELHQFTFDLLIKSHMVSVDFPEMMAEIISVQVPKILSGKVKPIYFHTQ

## CC1=CC(C)(C)Nc2ccc3c(c21)C(c1cccc(F)c1)Oc1ccccc1-3 (racemic) [Compound 191, (R/S)-5-(3-Fluorophenyl)-1,2-dihydro-2,2,4-trimethyl-5H-chromeno[3,4-f]quinoline]
AR [1]
  IC50: 520 nM
Human PR-B [2]
  Emax: 26%
Human PR-B [3]
  Emax: 74%
ER
  IC50: 330 nM
  ER Antagonist CV-1 Cells Efficacy (%): 93%

## COc1cccc(C2Oc3ccccc3-c3ccc4c(c32)C(C)=CC(C)(C)N4)c1 (racemic) [Compound 194, (R/S)-1,2-Dihydro-5-(3-methoxyphenyl)-2,2,4-trimethyl-5H-chromeno[3,4-f]quinoline]
ER
  IC50: 390 nM
  ER Antagonist CV-1 Cells Efficacy (%): 94%

## CC1CC(C)(C)Nc2cc3[nH]c(=O)cc(C(F)(F)F)c3cc21 (racemic) [Compound 260, 1,2,3,4-Tetrahydro-2,2,4-trimethyl-6-trifluoromethyl-8-pyridono[5,6-g]quinoline]
AR [1]; CV-1 cells, percent maximal inhibition, DHT at its EC50
  AR Antagonist CV-1 Cells Efficacy (%): 53%
Human PR-B [2]
  EC50: > 10000 nM
Human PR-B [3]
  IC50: 230 nM

## CC1=CC(C)(C)Nc2cc3c(cc21)c(C(F)(F)F)cc(=O)n3C [Compound 261, 1,2-Dihydro-2,2,4,9-tetramethyl-6-trifluoromethyl-8-pyridono[5,6-g]quinoline]
AR [4]; administered simultaneously with 0.1 mg of TP
  effect on testosterone-mediated increases in the weights of VP and SV: exhibited AR antagonist activity by suppressing the testosterone-mediated increases in the weights of the VP and SV

## CC1C(=O)C(C)(C)Nc2ccc(-c3cc(F)cc(C#N)c3)cc21 (centres unmarked) [Compound 286, 6-(3-Cyano-5-fluorophenyl)-1,2-dihydro-2,2,4-trimethyl-3-quinolone]
Human PR-B [2]
  Emax: < 20%
Human PR-B [3]
  Emax: 84%

## CC1=CC(C)(C)Nc2c(F)cc(-c3cccc([N+](=O)[O-])c3)cc21 [Compound 291, 8-Fluoro-1,2-dihydro-2,2,4-trimethyl-6-(3-nitrophenyl)quinoline]
Human PR-B [2]
  Emax: < 20%
Human PR-B [3]
  Emax: 79%

## CC1=CC(C)(C)Nc2ccc(-c3cccc([N+](=O)[O-])c3)c(Cl)c21 [Compound 310, 5-Chloro-1,2-dihydro-2,2,4-trimethyl-6-(3-nitrophenyl)quinoline]
Human PR-B [2]
  Emax: < 20%
Human PR-B [3]
  Emax: 70%

## CC1(C)C=Cc2c(ccc3c2c(=O)oc2ccc(Cl)cc23)N1 [Compound 313, 9-Chloro-1,2-dihydro-2,2-dimethyl-5-coumarino[3,4-f]quinoline]
Human PR-B [2]; CV-1 cells, percent maximal response relative to reference agonist progesterone
  PR Agonist CV-1 Cells Efficacy (%): 26%
Human PR-B [3]; CV-1 cells, percent maximal inhibition, progesterone at its EC50
  PR Antagonist CV-1 Cells Efficacy (%): 94%

## CC1=CC(C)(C)Nc2ccc3c(c21)COc1c(Cl)cccc1-3 [Compound 331, (R/S)-7-Chloro-1,2-dihydro-2,2,4-trimethyl-5H-chromeno[3,4-f]quinoline]
Human PR-B [2]
  Emax: < 20%
Human PR-B [3]
  Emax: 88%

## CC1(C)C=Cc2c(ccc3c2/C(=C/c2ccccc2)Oc2ccc(Cl)cc2-3)N1 [Compound 368, (Z)-5-Benzylidene-9-chloro-1,2-dihydro-2,2-dimethyl-5H-chromeno[3,4-f]quinoline]
Human PR-B [2]
  Emax: 183%
Human PR-B [3]
  Emax: < 20%

## CC1=CC(C)(C)Nc2ccc3c(c21)/C(=C/c1ccccc1C)Oc1ccc(F)cc1-3 [Compound 374, (Z)-9-Fluoro-1,2-dihydro-2,2,4-trimethyl-5-(2-methylbenzylidene)-5H-chromeno[3,4-f]quinoline]
Human PR-B [2]
  Emax: 231%
Human PR-B [3]
  Emax: < 20%

## CC1=CC(C)(C)Nc2cc(C)c3c(c21)/C(=C/c1ccccc1)Oc1ccc(F)cc1-3 [Compound 377, (Z)-5-Benzylidene-9-fluoro-1,2-dihydro-2,2,4,11-tetramethyl-5H-chromeno[3,4-f]quinoline]
Human PR-B [2]
  Emax: 101%
Human PR-B [3]
  Emax: < 20%

## CC1=CC(C)(C)Nc2ccc(-c3csc(C#N)c3)cc21 [Compound 452, 6-(5-Cyano-3-thienyl)-1,2-dihydro-2,2,4-trimethylquinoline]
Human PR-B [2]
  Emax: 119%
Human PR-B [3]
  Emax: 70%

## CC(=O)[C@H]1CC[C@H]2[C@@H]3CCC4=CC(=O)CC[C@]4(C)[C@H]3CC[C@]12C [Prog, progesterone, reference compound]
Human PR-B [2]
  Emax: 100%
Human PR-B [3]
  Emax: < 20%

## CCC(=O)O[C@H]1CC[C@H]2[C@@H]3CCC4=CC(=O)CC[C@]4(C)[C@H]3CC[C@]12C [TP, Testosterone Propionate]
AR [4]; [5]
  %SV growth: 165.1%
  %VP growth: 146.5%
  SV (wet wt): 12.3±0.8
AR [4]; 0.01 mg TP once daily for 3 days, castrated immature rats, ventral prostate (organ weights standardized as mg per 100 g body weight)
  VP (wet wt): 15.4±0.6
AR [4]; [6]
  %SV growth: 369.5%
  %VP growth: 224.1%
  SV (wet wt): 27.5±0.8
AR [4]; 0.03 mg TP once daily for 3 days, ventral prostate
  VP (wet wt): 23.5±1.3
AR [4]; 0.1 mg TP once daily for 3 days (Table 8)
  SV (wet wt): 42.0±2.0
AR [4]; 0.1 mg TP once daily for 3 days (Table 8), ventral prostate
  VP (wet wt): 35.3±2.1
AR [4]; [7]
  %SV growth: 563.8%
  %VP growth: 337.0%
AR [4]; [8]
  %SV growth: 616.1%
  %VP growth: 415.9%
  SV (wet wt): 45.9±1.9
AR [4]; 0.3 mg TP once daily for 3 days, ventral prostate
  VP (wet wt): 43.6±1.1
AR [4]; 1 mg TP once daily for 3 days
  %SV growth: 684.6%
  %VP growth: 427.4%
  SV (wet wt): 51.0±5.4
AR [4]; 1 mg TP once daily for 3 days, ventral prostate
  VP (wet wt): 44.8±3.7
AR [4]; TP (0.1) alone (Table 9)
  SV wt (% of TP (0.1) control): 100%
  VP wt (% of TP (0.1) control): 100%
AR [4]; TP (0.1) alone (Table 9), 3 days
  SV (wet wt): 33.6±4.0
AR [4]; TP (0.1) alone (Table 9), 3 days, ventral prostate
  VP (wet wt): 25.5±1.2
AR [4]; immature castrated rats, dosing for 3 days, VP and SV
  EC50 (increase in organ wet weights): ~0.03 mg
